Data set [1] concerns Saccharomyces cerevisiae strain BY4741. As to the kind of experiment: In vivo antioxidant capacity in stressed yeasts (growth recovery, survivors). It counts as cell-based. Here is the method: Saccharomyces cerevisiae haploid strain BY4741 was used as described previously. Briefly, 20 μL of glycerol stock culture was revived in 5ml of YPD medium (1% yeast extract, 2% bacteriological peptone and 2% dextrose) at 28 °C, with shaking (210 rpm). Fifty microliters of 20-h-old culture was used to inoculate fresh 5ml YPD (control medium) or 5 mL of oxidative stress medium (YPOxD: YPOxD; 1% yeast extract, 2% bacteriological peptone, 1% dextrose and 3% H2O2). Stress (and control) was conducted during 16h at 28 °C, with shaking (220 rpm).
Growth rate was determined from growth kinetics using the BioScreen C plate-reader system (OY Growth Curves Ab Ldt., Helsinki, Finland). Stressed yeast cultures (16 h old) were used to inoculate 200 µl of fresh media to an initial OD595 of 0.05–0.07, being distributed in 100-well honeycomb plates (Oy Growth Curves) in triplicate per each condition (each different dose of each compound). Plates were then incubated at 28 °C for 72h, with shaking (High force), taking OD measurement each 15 min in the Bioscreen C. Maximum growth rate (μmax) and biomass production (carrying capacity) were determined in R using ‘Growthcurver’ package version 0.3 [24]. Growth curves were constructed in EXCEL, represented as mean ± SEM (standard error of mean). […] In addition, to measure survival after oxidative stress and antioxidant effectiveness of each compound, yeast cells from each challenge were serially diluted in 96-well plates, and each dilution was spotted (with a 8 × 6 stainless steel replica platter from SIGMA) in triplicate to determine viable colonies after 24–48 h at 28 °C. Survivors (mean ± SEM) were compared between treatments with one-way ANOVA, Fisher’s LSD test, with alpha at 0.05 for significance.

The nature of data set [2]: Stability in aqueous media (H2O/acetonitrile 80:20, HPLC-MS). It counts as physicochemical. From the text:
The solutions were checked by HPLC-MS at regular intervals of time for 60 days. […] The rest of the compounds suffered progressive degradation, with complete disappearance from the solution after 10 or 20 days. The most unstable polyphenol derivatives were 4 and 10 (Figure S1), having both two p-dihydroxy substitutions in the phenyl rings, which points to the rapid and easy oxidation to the p-hydroquinone. From the four compounds with three phenyl rings, only one was stable in aqueous solution (17).

Data set [3] in a line: DPPH free radical scavenging assay (RSA). Here is the method:
For the 2,2′-diphenylpicrylhydrazyl (DPPH) assay, antioxidant compounds were dissolved in ethanol with a stock concentration of 4 mM and stirred for 24 h. DPPH (Alfa Aesar) was also dissolved in ethanol at 0.127 mM. Different compound solutions were prepared by serial dilutions of each stock solution ([…]). […] Amounts of 80 µL of each solution and 80 µL of DPPH were added in a 96-well plate. The absorbance was measured at different times (10, 20 and 30 min and 1 and 2 h) by a Multi-Detection Microplate Reader Synergy HT (λMAX = 515 nm). Radical scavenging activity (RSA, %) was calculated using Equation (1) (1) RSA(%)=ADPPH−AEXTRACT/ADPPH·100 where AEXTRACT and ADPPH correspond to the absorbance of DPPH with and without the extracts, respectively. Eight replicates were used for each compound and results were expressed as mean value ± standard deviation. The RSA half-maximal inhibitory concentration (IC50) values were calculated from the relationship curve of RSA versus concentrations by a non-linear fit using the software GraphPad Prism 7.
In general terms: The DPPH test is a chemical assay of radical scavenging.

A short description of data set [4]: Aqueous thermodynamic solubility in H2O (UV). The note with it: water, thermodynamic from solid. It counts as physicochemical. From the text: 4) Log P and aqueous solubility of selected compounds.
Table S2. Theoretical Log P values and aqueous thermodynamic solubility measured for
Comp `Chemical Structure MW LogP Calc Aqueous Solubility a
a Thermodynamic solubility in H 2O (UV). […]

The subject of data set [5] is human dermal fibroblasts (HDF). Description: Cell viability, AlamarBlue assay. In kind it is cell-based. The conditions noted are these: 24 h, AlamarBlue, non-linear fit. Here is the method:
Cytotoxicity of selected antioxidant compounds was assessed using human dermal fibroblasts (HDF, Innoprot, P10856) and an AlamarBlue assay. Human fibroblasts were grown and maintained using Dulbecco’s Modified Eagle Medium high glucose (DMEM, Sigma Aldrich, D6171), supplemented with 10% Fetal Bovine Serum (FBS), 2% L-glutamine and 1% penicillin/streptomycin. Cells were incubated at 37 °C, 95% relative humidity and 5% CO2. Additionally, DMEM-high glucose, HEPES, no phenol red (Gibco, 2106329) was used to prepare the AlamarBlue solution. Stock solutions of the antioxidant compounds 3, 8, 15 and 17 were prepared in dimethyl sulfoxide (DMSO). Compound 7 was not soluble enough in DMSO to obtain a cell viability IC50 value. Serial dilutions of the antioxidant compounds were prepared using the previously mentioned stock solutions and DMEM. Final DMSO concentration was maintained lower than 1% v/v in the cell culture experiments. HDF were seeded at 9 × 10^4 cells/well in a 96-well plate and incubated for 24 h. The medium was replaced by the corresponding antioxidant solutions and incubated for an additional 24 h. Then, compounds were removed, cells were washed with Dulbecco’s Phosphate Buffered Saline (PBS, Sigma Aldrich) and treated with a 10% v/v AlamarBlue (Invitrogen) solution prepared in DMEM without phenol red. After 3 h of incubation, absorbance was monitored at 570 nm by a Multi-Detection Microplate Reader Synergy HT. Cells treated with DMEM without any antioxidant compound were used as the 100% viability control. Eight replicates were used for each antioxidant solution. IC50 values were obtained by a non-linear fit using the software GraphPad Prism 7.

Data set [6] can be described thus: ABTS radical cation scavenging assay. Here is the method: The 2,2′-azino-bis (3-ethylbenzothiazoline-6-sulfonic acid) diammonium salt (ABTS) assay was performed according to Re et al. and modified by Oki et al. for its use in microplates. Samples were diluted in methanol. An ABTS^•+ stock solution was prepared by adding 44 μL of potassium persulfate (140 mmol/L) to a 2.5 mL ABTS^•+ aqueous solution (7 mmol/L). The working solution of the radical ABTS^+ was prepared by diluting the stock solution 1:75 (v/v) in a sodium phosphate buffer (5 mmol/L, pH 7.4) to obtain an absorbance value of 0.7±0.02 at 734 nm. Samples (30 μL) were added to 270 μL of the working solution of ABTS^•+ in a microplate. Absorbance was measured at 734 nm and 30 °C for 20 min, every 5 min in a Synergy HT plate spectrophotometer (Biotek Instruments, Winoosky, VT, USA). A calibration curve was made with Trolox (20–250 μM). All samples were analyzed in triplicate. Results were expressed in μmol TE/μmol of pure compound, as for the ORAC assays.

Each structure is given as a SMILES string. In brackets after ≈: the same amount, converted by molar mass. Read-outs that look alike come from different tables or passages of the source.

The term IC50 denotes the concentration needed to halve the response being measured. As usually defined, the solubility is the concentration that dissolves in the medium under given conditions. A high value points to a readily soluble substance. The term melting point denotes the temperature, or range, at which the solid turns liquid. `O=C(Nc1ccc(O)cc1)N(c1ccc(O)cc1)c1ccc(O)cc1` [Compound 17, N,N-bis(4-Hydroxyphenyl)-N′-(4′-hydroxyphenyl)urea]: the melting point was 186 to 187 °C (dec.). The “growth rate (r) recovery of stressed yeast” value in data set [1] (H2O2-stressed BY4741, doses 2, 20 and 40 μg) is “best performing antioxidant”. For the same molecule, the “carrying capacity (k) recovery of stressed yeast” value in data set [1] (H2O2-stressed BY4741, each dose tested) was “able to recover the carrying capacity of yeast cells similarly as control antioxidants”. The “stability in aqueous media” value in data set [2] (H2O/acetonitrile (80:20%), room temperature, checked for 60 days) was “sufficiently stable”. Further, the “Aqueous Stability (%)” value in data set [2] (remaining pure compound (HPLC) after two months at room temperature in aqueous solution (+20% acetonitrile)) turned out to be 93%. In addition, in data set [3] (10 min to 2 h), the “concentration down to which RSA ability is maintained independently of time” value was 0.25 mM. In addition, the “RSA capacity fold higher compared to resveratrol” value in data set [3] (after 10 min, from IC50) is listed as 3.7 fold. In addition, the IC50 in data set [3] (compound needed to reach 50% RSA after 10 min, read-out: DPPH PSA IC50 10 min) amounted to 17.9 µM. In addition, the RSA percentage in data set [3] (highest concentration 2 mM, 10 min) is given as ~72%. Also, in data set [3] (read-out: DPPH PSA IC50 2 h, compound needed to reach 50% RSA after 2 h), the IC50 was determined as 9.6 µM. This molecule had a solubility in data set [4] of 620 ± 10 µg/mL (≈ 1840 µM). The IC50 in data set [5] was > 1400 µM. In addition, the IC50 in data set [5] (Homo sapiens, Fibroblast) came to 1790 µM. Moreover, in data set [6], the ABTS is 3.57 ± 0.00 µmol of trolox/µmol of pure compound.
